In US7919077B2, “Pharmaceutical compositions comprising CCL2 and use of same for the treatment of inflammation” (Yeda Research and Development Co. Ltd., priority 2006, dated 2011):

What was measured:
ERK½ = experiment: ERK detection (phospho-ERK western blot) in naïve T cells; format: cell-based, mice; settings: naïve T cells pre-treated with CCL2 30 minutes, CCL21 for 30 or 60 seconds; FIG. 3
Description: Stimulation of T cells—Cell stimulation was performed as previously described [Flaishon et al., J Biol Chem. (2001) 276:46701-46706]. Briefly, 1×10^7 T cells were suspended in 1 ml DMEM cell medium containing 10% (v/v) Fetal Calf Serum (FCS). Next, 0.1 ng/ml CCL2 (CytoLab) was added to each tube and the tubes were immediately placed in 37° C. for 30 minutes. Immediately after stimulation, cells were washed and handled as described hereinbelow.
Preparation of cell extract—Stimulated cells were lysed in lysis buffer containing: 25 mM Tris, pH 7.4; 2 mM Vanadate; 75 mM glycophosphate, pH 7.2; 2 mM EDTA; 2 mM EGTA; 10 mM NaPPi; and 0.5% NP-40, in the presence of the following protease inhibitors: 10 mg/ml Leupeptin; 10 mg/ml aprotinin; 10 mg/ml pepstatin; 10 mg/ml chymostatin (Roche); 1 mM PMSF (Sigma); and 20 mM N-etheyl-melamide (Sigma).
ERK detection—Cell lysates were separated on a 10% (wt/vol) SDS-PAGE. Proteins were electro-transferred to nitrocellulose membranes and reacted with anti-phospho-specific extracellular signal-regulated kinase (ERK) 1 or 2 (a kind gift from Dr Rony Seger, Weizmann Institute, Rehovot, Israel) followed by peroxidase-labeled goat anti-mouse (Jackson Labs), or reacted with polyclonal anti-Tubulin (Santa Cruz) followed by peroxidase anti-rabbit (Jackson Labs).

effector T cells = experiment: Transwell migration of effector T cells (data not shown); format: cell-based, mice; settings: low dose CCL2
TNBS colitis mouse model = format: in vivo, mice; settings: for Diarrhea (# of mice): 8 mice; for Colitis score: Wallace score 0 to 16
Description: TNBS colitis model and treatment with CCL2—TNBS colitis was induced as previously described [Ohkawara et al. (2002) Gastroenterology, 123:256]. Briefly, mice were anesthetized by i.p. injection (35 μl per mouse) of a mixture containing 85% ketamine and 15% xylazine (20 mg/ml). Next, 100 μl of TNBS [55% volume of 50% ethanol mixed with 45% volume of TNBS solution ([…]; Sigma-Aldrich)] was infused into the colonic lumen (about 3.5 cm of the anal verge) via 1 ml syringe attached to a feeding needle. Treated mice were weighted daily and visually inspected for clinical symptoms, such as rectal bleeding and diarrhea.
TNBS mice were divided into 6 groups. CCL2 groups (10 mice in each group) were injected i.p. daily with different CCL2 concentrations (30 ng, 60 ng or 180 ng) in 200 μl of PBS from day 0 (immediately after TNBS induction) to day 6. Control groups (10 mice in each group) were injected i.p. daily with 200 μl PBS alone. Additionally, 5 mice were injected i.p. daily with dexamethasone; and 1 mouse which was not treated and served as negative control for future histology and weight.
Macroscopic and histological assessment of colitis—An observer blind to the experimental procedure scored colitis for clinical manifestation of disease. The colon was macroscopically examined (×5 magnification) to evaluate the macroscopic lesions according to the Wallace criteria. The Wallace score ranks macroscopic colon lesions on a scale from 0 to 16 based on criteria reflecting inflammation, such as hyperemia, thickening of the bowel and the extent of ulceration. The colon was cut lengthwise and fixed in 4% paraformaldehyde for future histology.

[1] = CCL2 30 ng i.p. daily day 0 to day 6
[2] = CCL2 60 ng i.p. daily day 0 to day 6
[3] = CCL2 180 ng i.p. daily day 0 to day 6

In the case of “CCL2: mammalian (e.g., human) CCL2 protein, GenBank NM_002982 / NP_002973; murine CCL2 used in the asthma model”, the “CCL21-induced phosphorylation of ERK½” value (ERK½) is reported as “inhibited”, the “CCL21 induced transwell migration of effector cells” value (effector T cells) is reported as “down-regulated” and the “CXCL12 induced transwell migration of effector cells” value (effector T cells) is reported as “down-regulated”. The “Colon length (cm)” value (TNBS colitis mouse model; [1]) was 6.25 ± 0.65 cm, the “Diarrhea (# of mice)” value (TNBS colitis mouse model; [1]) was 4 # of mice and the Colitis score (TNBS colitis mouse model; [1]) was 10.875 ± 4.29. For the same substance, the “Colon length (cm)” value (TNBS colitis mouse model; [2]) was 7.88 ± 0.35 cm, the “Diarrhea (# of mice)” value (TNBS colitis mouse model; [2]) was 0 # of mice and the Colitis score (TNBS colitis mouse model; [2]) was 2.13 ± 1.89. For the same substance, the “Colon length (cm)” value (TNBS colitis mouse model; [3]) was 7.88 ± 0.58 cm, the “Diarrhea (# of mice)” value (TNBS colitis mouse model; [3]) was 0 # of mice and the Colitis score (TNBS colitis mouse model; [3]) was 2.88 ± 1.89. The “TNBS colitis disease severity (diarrhea, colon shortening)” value (TNBS colitis mouse model; mice, CCL2 i.p. daily day 0 to day 6, Table 2, FIG. 10) was “significantly inhibited the disease”.
